Measurements taken from US9120727B2, “Process for the preparation of pleuromutilins” (NABRIVA THERAPEUTICS AG, priority 2010, dated 2015).
Where a name gives a salt, the structure may show the parent alone.

How the values were obtained:
[1] = Comparative stability of crystalline and amorphous salts of compound I, stored at 60° C., HPLC; format: physicochemical
Description: In the following TABLE 4 comparative stability data of the corresponding crystalline and amorphous salts of compound I are shown. [table]

[2] = Solubility of crystalline salts in water, aqueous vehicles and biorelevant media; format: physicochemical; conditions: 0.9% NaCl solution, FaSSIF and FeSSIF
[3] = tested on: Streptococcus pneumoniae ATCC49619; assay: Minimum inhibitory concentration (MIC) in accordance with CLSI recommendations; format: cell-based
Experimental: (§1) The antimicrobial, e.g. antibacterial activity of 14-O-{[(4-amino-2-hydroxy-cyclohexyl)-sulfanyl]-acetyl}-mutilins was outlined in WO2008/113089. […] The minimum inhibitory concentration (MIC) was determined in accordance with CLSI recommendations.

[4] = tested on: Staphylococcus aureus ATCC49951; assay: as above; format: cell-based
Experimental: as §1

[5] = 28 d at 60° C., * sample did not fully dissolve in water, suspension analyzed

Structure (SMILES)	Area % of 14-O-{[(1R,2R,4R)-4-amino-2-hydroxy-cyclohexylsulfanyl]-acetyl}-mutilin (compound I) by HPLC stored at 60° C. [1, 5] [Area %]	Area % of 14-O-{[(1R,2R,4R)-4-amino-2-hydroxy-cyclohexylsulfanyl]-acetyl}-mutilin (compound I) by HPLC stored at 60° C. ([1]; Initial) [Area %]	solubility [2]	MIC [3] [µg/mL]	MIC [4] [µg/mL]
C=C[C@]1(C)C[C@@H](OC(=O)CS[C@@H]2CC[C@@H](N)C[C@H]2O)[C@]2(C)C(C)CC[C@]3(CCC(=O)[C@H]32)[C@@H](C)[C@@H]1O (stereo partly drawn) [Acetate (Form B) crystalline, 14-O-{[(1R,2R,4R)-4-Amino-2-hydroxy-cyclohexyl-sulfanyl]-acetyl}-mutilin acetate, crystalline Form B]	98.9	99.5	–	–	–
C=C[C@]1(C)C[C@@H](OC(=O)CS[C@@H]2CC[C@@H](N)C[C@H]2O)[C@]2(C)C(C)CC[C@]3(CCC(=O)[C@H]32)[C@@H](C)[C@@H]1O (stereo partly drawn) [Hydrogen maleate crystalline, 14-O-{[(1R,2R,4R)-4-Amino-2-hydroxy-cyclohexylsulfanyl]-acetyl}-mutilin hydrogenmaleate, crystalline Form 1]	–	–	surprisingly high	–	–
C=C[C@]1(C)C[C@@H](OC(=O)CS[C@@H]2CC[C@@H](N)C[C@H]2O)[C@]2(C)C(C)CC[C@]3(CCC(=O)[C@H]32)[C@@H](C)[C@@H]1O (stereo partly drawn) [L-Lactate crystalline, 14-O-{[(1R,2R,4R)-4-Amino-2-hydroxy-cyclohexylsulfanyl]-acetyl}-mutilin L-lactate, crystalline Form 1]	98.3	99.4	surprisingly high	–	–
C=C[C@]1(C)C[C@@H](OC(=O)CS[C@@H]2CC[C@@H](N)C[C@H]2O)[C@]2(C)C(C)CC[C@]3(CCC(=O)[C@H]32)[C@@H](C)[C@@H]1O (stereo partly drawn) [compound of formula I, 14-O-{[(1R,2R,4R)-4-amino-2-hydroxy-cyclohexylsulfanyl]-acetyl}-mutilin]	–	–	–	< 0.4	< 0.4
